The text below walks through data of patent publication US20210113715A1, “TARGETED NANOPARTICLES FOR DIAGNOSING, DETECTING AND TREATING CANCER” (CEDARS-SINAI MEDICAL CENTER, priority 2018, published 2021).

Molecules are shown by their SMILES. Entries after “also recorded” stand apart in the source; their conditions may differ.

For data set [1], the system named is PC3 prostate cancer cells. Briefly: Transwell cell migration, PC3. It counts as cell-based. Conditions: PC3, 24 h at 37° C. As for the experimental part:
After incubation, nonmigratory cells and media were washed from transwells, and those cells that migrated to the bottom of the filters were, fixed and stained and imaged using a fluorescence Microscope. […] Quantification of the average number of cells per image that have migrated (FIG. 8C).

Data set [2] relates to LNCaP prostate cancer cells. Briefly: Transwell cell migration, LNCaP. The following applies: 24 h at 37° C. Type of data set: cell-based.
Data set [3] relates to human intracranial U87MG tumors. Briefly: HMC-FH(PTX) treatment of nude mice with intracranial U87MG tumors. It counts as in vivo. The following applies: six treatments, 1 mg HMC, 3 mg PTX and 4 mgFe/kg; treatment period 40 days after tumor inoculation. The method, then:
Brain MRI images of treated mice (FIG. 46A). […] Corresponding mice body weight measurements (FIG. 46D).
The HMC-FH(PTX) was next used to treat nude mice with human intracranial U87MG tumors. […] It is not until after the treatment period that tumors start developing in the HMC-FH(PTX) treated mice (FIG. 46B).

Data set [4] relates to OATP transporter (U87 cells). Briefly: Inhibition of HMC-FH uptake by pre-incubation with inhibitors. Type of data set: cell-based. Conditions: fluorescence microscopy and flow cytometry. Background: In flow cytometry, cells or beads pass a laser one at a time.
Description: Next, we tested the ability of HMC-FH to target and internalize into various GBM cancer cell lines.
Data set [5] deals with intracranial U87MG tumors. The following applies: mouse, in vivo.
Description: Mouse brains were extracted from the mouse skull, and tumors visualized and resected from the healthy brain while recording using SIRIS.
The test system of data set [6] is intracranial U87 GBM tumors. Briefly: Survival studies (Kaplan-Meier) of mice with intracranial U87 tumors. It counts as in vivo. Conditions: treated 14 days after tumor implantation, 3 umol drug/kg i.v. twice a week for three weeks, n=5. As for the experimental part: A dose of 3 umol drug/kg, 22 mM Fe (FH) was administered i.v via tail vein injection twice a week for […].
(§1) A dose of 3 umol drug/kg, 22 mM Fe (FH) was administered i.v. via tail vein injection twice a week for three weeks.
as §1
HMC-FH(PXL) and HMC-FH(BFA) increase the survival of mice with GBM tumors. In these experiments, we injected mice (n=5) with intracranial U87 GBM tumors with HMC-FH encapsulated with either paclitaxel (PTX) or docetaxel (DXT). As control, we injected either PBS or the corresponding drug along at equal concentrations. In initial studies, treatment started “late”, 14 days after tumor implantation. […] In additional studies, treatment was started earlier, 5 days after injection, to find out if an early treatment would improve survival. Impressive results were obtained by injecting HMC-FH(PXL), 5 days after tumor implantation.
In initial animal studies using BFA and HMC-FH(BFA), we injected mice (n=5) with intracranial U87 GBM tumors with either BFA (dissolved in DMSO) or HMC-FH(BFA) in saline. In these studies, treatment started “late”, 14 days after tumor implantation. […] The ability of BFA to cross the BBB has not been studied or reported, to our knowledge. However, due to its poor solubility, it is advantageous to encapsulate BFA in HMC-FH.

The next data set relates to TMZ-resistant U87R cells. The experiment in a line: Transwell cell migration, U87R. It counts as cell-based. The method, then: After incubation, nonmigratory cells and media were washed from transwells, and those cells that migrated to the bottom of the filters were, fixed and stained and imaged using a fluorescence Microscope (Keyence BZ-X7 00). Representative images (5 fields) were taken of treatment (2 uM of each-BFA, HMC-FH and HMC-FH (BFA, DMSO) for quantification.

As to `CC(=O)O[C@@]12CO[C@@H]1C[C@H](O)[C@@]1(C)C(=O)[C@H](O)C3=C(C)[C@@H](OC(=O)[C@H](O)[C@@H](NC(=O)OC(C)(C)C)c4ccccc4)C[C@@](O)([C@@H](OC(=O)c4ccccc4)[C@H]21)C3(C)C` [DXT, docetaxel], the cell migration entry in data set [1] and in data set [2] was “decreased migration” each time.

With `CC(=O)O[C@H]1C(=O)[C@@]2(C)[C@H]([C@H](OC(=O)c3ccccc3)[C@]3(O)C[C@H](OC(=O)[C@H](O)[C@@H](NC(=O)c4ccccc4)c4ccccc4)C(C)=C1C3(C)C)[C@]1(OC(C)=O)CO[C@@H]1C[C@@H]2O` [PTX, paclitaxel], the “tumor growth / tumor detection by MRI or histopathology” value in data set [3] was “developed visible tumor”.

With `COC(=O)N[C@H](C(=O)N[C@@H](Cc1ccccc1)[C@@H](O)CN(Cc1ccc(-c2ccccn2)cc1)NC(=O)[C@@H](NC(=O)OC)C(C)(C)C)C(C)(C)C` [Atazanir], the “effect of pre-incubation on HMC-FH uptake” value in data set [4] was “uptake and cell associated fluorescence was reduced; also recorded: inhibits HMC-FH internalization”.

For `O=CC[C@@H](O)[C@H](O)[C@H](O)CO` [2-deoxyglucose], the “effect of pre-incubation on HMC-FH uptake” value in data set [4] is “do not block the internalization”.

As for `CC1(C)C(/C=C/C=C/C=C/C=C2\N(CCCCS(=O)(=O)[O-])c3ccc4ccccc4c3C2(C)C)=[N+](CCCCS(=O)(=O)[O-])c2ccc3ccccc3c21.[Na+]` [ICG], in data set [5], the “fluorescent labeling / localization to tumor” value is “does not show tumor localization”.

In the case of `C[C@H]1CCC/C=C/[C@@H]2C[C@H](O)C[C@H]2[C@H](O)/C=C/C(=O)O1` [BFA, Brefeldin A], the cell migration entry in data set [1] was “decreased migration”; with TMZ-resistant U87R cells (U87R, 2 uM, 24 h), “decreased migration”; in the data set on TMZ-resistant U87R cells (printed as U87 cells), “decrease cell migration”. The “survival, BFA formulations” value in data set [6] is recorded as “significantly longer than in the control mice; also recorded: enhanced mice survival”.
